Results: patent US20250109384A1, “A CELLULAR COMPOSITE” (ALCYOMICS LIMITED, priority 2022, published 2025)
Entries after “also recorded” stand apart in the source; their conditions may differ.

B1: HAPLN1: hyaluronan and proteoglycan link protein 1 (SEQ ID NO: 1), added to chondrogenic media at 100 ng/mL (protein, listed as Homo sapiens)
chain: MKSLLLLVLISICWADHLSDNYTLDHDRAIHIQAENGPHLLVEAEQAKVFSHRGGNVTLPCKFYRDPTAFGSGIHKIRIKWTKLTSDYLKEVDVFVSMGYHKKTYGGYQGRVFLKGGSDSDASLVITDLTLEDYGRYKCEVIEGLEDDTVVVALDLQGVVFPYFPRLGRYNLNFHEAQQACLDQDAVIASFDQLYDAWRGGLDWCNAGWLSDGSVQYPITKPREPCGGQNTVPGVRNYGFWDKDKSRYDVFCFTSNFNGRFYYLIHPTKLTYDEAVQACLNDGAQIAKVGQIFAAWKILGYDRCDAGWLADGSVRYPISRPRRRCSPTEAAVRFVGFPDKKHKLYGVYCFRAYN

Experiments:
Y201 OA models = assay: q-PCR of OA models with coated scaffolds or HAPLN1 modified chondrogenic media; format: cell-based, human; settings: OA models (cytokine stimulated); for fold change of MMP13 gene expression: scaffold coating or media supplement
Procedure: (§1) To improve the overall quality of the model and encourage aggrecan deposition a range of separate coatings were applied to the 3D scaffold. The applied coatings were selected from human collagen type II, human hyaluronan and human aggrecan to empty 3D scaffolds. Specifically, COL-II was solubilised to 1 mg/mL in 0.5M acetic acid. Stock was diluted 1:500 in PBS and 10 uL layered onto each scaffold. Scaffolds were left to air dry overnight at 2-8 degrees. The next day scaffolds there gently washed in PBS and were ready for use. Hyaluronan was reconstituted into a 1% w/v stock in sterile water. 10 uL was added to each scaffold and left to polymerise at 37 degrees for 1 hour. Following this incubation scaffolds were ready to use. Aggrecan was reconstituted in PBS to create a 100ug/mL stock solution. This stock was used neat, with 10 uL added to each scaffold. Scaffolds were incubated at 37 degrees for several hours prior to use.
(§2) An independent modification was also made to the chondrogenic media. This involved the addition of the HAPLN1 link protein (SEQ ID NO: 1). Specifically, HAPLN1 stock solution was added to chondrogenic media at a working concentration of 100 ng/mL. The resulting medium composition (complete) is outlined in Table 1. L-Ascorbic acid-2-phosphate and HAPLN1 link protein have limited shelf life at 4° C. and so are added to aliquots of incomplete CDM (all components of Table 1 with the exception of L-Ascorbic acid-2-phosphate and HAPLN1 link protein) to create complete CDM on day 7. Preparation of HAPLN1 link protein (Cat #2608-HP RnD sytems) is as follows: • Unit concentration: 25 μg • Solvent: PBS • Reconstitution volume: 250 μl • Stock concentration: 100 μg/mL • Working concentration: 100 ng/mL • Use: 1:1000 dilution for working concentration. E.g. 50 μL of stock into 50 mL of media. • HAPLN1 is reportedly stable for 1 month at 4° C.
(§3) The resulting models were stimulated with cytokines using previously established protocols to create OA models. Following cytokine stimulation, the resulting OA models were harvested and analysed for q-PCR, and immunofluorescent (IF). The supernatant was also harvested and analysed using ELISAs and FRET assays. All analyses were conducted in triplicate.

[1] = tested on: Y201 models and OA models; assay: ELISA of MMP13 and ADAMTS4 in supernatant of modified models and OA models; format: cell-based, human; settings: OA models vs models; for MMP13 concentration in supernatant (ELISA): coating or supplement
Procedure: as §1, §2, §3

[2] = tested on: Y201 models and OA models; assay: Aggrecan / collagen II immunofluorescence (IHC) of models and OA models with coatings or media modification; format: cell-based, human
Procedure: as §1, §2, §3

[3] = at 4° C.; cited from earlier work
[4] = models not stimulated with cytokines
[5] = OA models (cytokine stimulated)

Molecule | ADAMTS5 gene expression (Y201 OA models; coated scaffolds) | MMP13 concentration in supernatant (ELISA) [1] | aggrecan staining [2, 4] | gene expression profile vs uncoated OA models (Y201 OA models; coated scaffolds) | ADAMTS4 concentration in supernatant (ELISA) ([1]; coating) | fold change of MMP13 gene expression (Y201 OA models) [fold] | aggrecan staining [2, 5] | stability [3] [month] | collagen II production (immunofluorescence) ([2]; MSCs differentiated to chondrocytes in presence of HAPLN1)
Collagen type II: human collagen type II applied as coating to the 3D scaffold | increase in expression of ADAMTS5 | decrease in the levels of MMP13 | did not stain positively of aggrecan |  |  |  |  |  | 
Hyaluronan |  | decrease in the levels of MMP13 | did not stain positively of aggrecan | comparable | increase in ADATS4 levels |  |  |  | 
aggrecan: human aggrecan applied as coating to the 3D scaffold |  | increased MMP13 levels | did not stain for aggrecan |  |  | ~19 | aggrecan was detected |  | 
B1 |  | increased MMP13 levels | did stain for aggrecan; also recorded: significant levels of ACAN protein |  |  | ~6 | no staining of aggrecan | 1 | does not have a negative effect on collagen II production
